The test system of one assay is Nox4. The assay can be described thus: H2O2-generating activity of lysed COS-Nox4 cells (Amplex Red fluorescence). Type of assay: biochemical, human. As to conditions: for inhibition of H2O2 production (Nox4 activity): COS-Nox4 cell lysate preincubated with peptide 1 to 50 μM for 15 min at 24°C, mean of 3 experiments (Figure 1(f)); for effect on Nox4 activity (H2O2 production): COS-Nox4 cell lysate preincubated with various concentrations of C-terminal tail peptide for 15 min at 24°C, mean of 3 experiments (Figure 2(b)); for inhibition of Nox4 activity (Nox4-derived H2O2 production): COS-Nox4 cell lysate preincubated with various concentrations of p22phox N-terminal peptide for 15 min at 24°C, mean of 3 experiments (Figure 3(b),(c)). The method, then:
Cell transfection was carried out using Lipofectamine LTX and Plus reagent (Invitrogen, Carlsbad, CA, USA), according to the manufacturer's instructions. COS-22 cells were transiently transfected with pcDNA3.1/Hygro-hNox4 (COS-Nox4 cells). Western blot experiments were performed to validate the expression of Nox4 as we reported previously. Twenty-four hours after transfection, cells were harvested by incubating with 0.05% trypsin/EDTA for 5 min at 37°C. Following addition of DMEM/10% FBS to neutralize the trypsin, the cells were pelleted by centrifugation at 1000 ×g for 5 min at 4°C and used for the experiments.
H2O2 production was quantified in lysed COS-Nox4 cells as described previously. […] COS-Nox4 and COS-22 cells were suspended to a concentration of 5 × 10^7 cells/mL in ice-cold disruption buffer (PBS containing 0.1 mM EDTA, 10% glycerol, protease inhibitor cocktail, and 0.1 mM PMSF). The cells were lysed by five freeze/thaw cycles and passed through a 30-gauge needle five times to further lyse the cells. Throughout all these procedures, extreme care was taken to maintain the lysate at a temperature close to 0°C. Incubation of COS-Nox4 cell lysate (10 μg/100 μL) with peptides was performed in assay buffer (25 mM Hepes, pH 7.4, containing 120 mM NaCl, 3 mM KCl, 1 mM MgCl2, 25 μM FAD, 0.1 mM Amplex Red, and 0.32 U/mL of HRP) for 15 or 60 min at room temperature on an orbital shaker (120 movements/min), before the addition of 36 μM NADPH, to initiate H2O2 production. […] Fluorescence measurements were made using a Biotek Synergy 4 Hybrid Multi-Mode Microplate Reader (excitation wavelength: 560 nm; emission wavelength: 590 nm). A standard curve of known H2O2 concentrations was developed using the Amplex Red assay (as per the manufacturer's instructions) and was used to quantify H2O2 production in lysed COS-Nox4 cells. The reaction was monitored at room temperature for 40 min. The emission increase was linear during this interval. The rate of H2O2 production was interpolated from the standard curve and is […] nmol H2O2/min/mg protein. The effect of a peptide on Nox4-derived H2O2 production was expressed as percent inhibition of Nox4, which was calculated by considering H2O2 production by control mixtures in the absence of peptide as 100%.

In a further assay the test system is Nox2. The conditions noted are these: ref [8]; cited from earlier work. An excerpt:
With this in mind, in the current study, we tested whether application of a peptide mimic (B90–98) from the variable region of Nox4 B-loop interferes with the activity of Nox4. An important premise for this work was ...

Take `c1ccc2c(c1)[I+]c1ccccc1-2` [DPI, diphenyleneiodonium chloride, reference compound]: in the assay with Nox4 (COS-Nox4 cell lysate, DPI 50 μM, 36 μM NADPH, Amplex Red/HRP, monitored at 24°C for 40 min, mean of 3 experiments), the “inhibition of Nox4-dependent activity (rate of H2O2 generation)” value is ~ 90%.
With “B77–91: 15-mer peptide from the Nox4 B-loop, residues 77–91 (RTLLAYLRGSQKVPS; UniProt Q9NPH5 77-91, looked up, fragment)”, the “inhibition of H2O2 production (Nox4 activity)” value in the assay with Nox4 (Amplex Red) was “did not inhibit”.
On the same count and under the same terms, the value for “B82–96: 15-mer peptide from the Nox4 B-loop, residues 82–96 (YLRGSQKVPSRRTRR; UniProt Q9NPH5 82-96, looked up, fragment)” was “did not inhibit”.
Turning to “B90–98: nonamer peptide mimic from the variable region of Nox4 B-loop, residues 90–98 (PSRRTRRLL; UniProt Q9NPH5 90-98, looked up, fragment)”, the “inhibition of Nox4-derived H2O2 production” value with Nox4 (COS-Nox4 cell lysate preincubated with peptide 0.1-100 μM for 15 min at 24°C, 36 μM NADPH, Amplex Red, mean of 3 experiments (Figure 1(d))) is given as “did not inhibit”.
Turning to “B92–106: 15-mer peptide from the Nox4 B-loop, residues 92–106 (RRTRRLLDKSRTFHI; UniProt Q9NPH5 92-106, looked up, fragment)”, in the assay on Nox4 (Amplex Red), the “inhibition of H2O2 production (Nox4 activity)” value is “did not inhibit”.
As to “C555–562: octameric Nox4 C-terminal tail peptide, residues 555–562 (TLHKLSNQ; UniProt Q9NPH5 555-562, looked up, fragment)”, the “effect on Nox4 activity (H2O2 production)” value in the assay with Nox4 (Amplex Red) is reported as “did not affect”.
As for “C560–567: octameric Nox4 C-terminal tail peptide, residues 560–567 (SNQNNSYG; UniProt Q9NPH5 560-567, looked up, fragment)”, in the assay on Nox4 (Amplex Red), the “effect on Nox4 activity (H2O2 production)” value is listed as “did not affect”.
On the same count and under the same terms, the same measure for “C565–572: octameric Nox4 C-terminal tail peptide, residues 565–572 (SYGTRFEY; UniProt Q9NPH5 565-572, looked up, fragment)”: “did not affect”; for “C570–578: nonameric Nox4 C-terminal tail peptide, residues 570–578 (FEYNKESFS; UniProt Q9NPH5 570-578, looked up, fragment)”: “did not affect”.
“Nox2ds: peptide mimicking the B-loop region of Nox2 (amino acids 86–94), earlier work of the authors (CSTRVRRQL; UniProt P04839 86-94, looked up, fragment)”: the “inhibition of Nox2-derived O2•− production” value with Nox2 is “selectively and potently inhibits”.
For “PSRRTRELL [R96E mutant version of B90–98, R96E mutant version of B90–98 (…)]”, in the assay with Nox4 (COS-Nox4 cell lysate preincubated with peptide 0.3 to 30 μM for 15 min at 24°C, Amplex Red, mean of 3 experiments (Figure 1(e))), the “inhibition of Nox4 activity (H2O2 production)” value is listed as “did not inhibit”.
As to “RAMRAN [p22 W6/9R, p22phox 6–11 peptide with tryptophans mutated to arginine (RAMRAN)]”, the “inhibition of Nox4 activity (Nox4-derived H2O2 production)” value with Nox4 (Amplex Red) was “did not inhibit”.
Same read-out and setting: the value for WAMWAN [p22 WT 6–11] was “did not inhibit”.

The record behind these values is publication PMC3626398, “Strategies Aimed at Nox4 Oxidase Inhibition Employing Peptides from Nox4 B-Loop and C-Terminus and p22^phox N-Terminus: An Elusive Target” (International Journal of Hypertension, 2013).
